Results on ten molecules are retold here after ChEMBL document CHEMBL4257572, “Semisynthesis of ent-norstrobane diterpenoids as potential inhibitor for factor Xa” (Bioorg Med Chem Lett, 2018).

The IC50 is the concentration that gives 50% inhibition.

In the test the target is Coagulation factor X (Homo sapiens, UniProt P00742). Description: Inhibition of human coagulation factor 10a using Z-D-Arg-Gly-Arg-pNA.2HCl as substrate preincubated for 15 mins followed by substrate addition by UV absorption assay.
Coagulation factor X, sequence (P00742 41-179 limits assumed): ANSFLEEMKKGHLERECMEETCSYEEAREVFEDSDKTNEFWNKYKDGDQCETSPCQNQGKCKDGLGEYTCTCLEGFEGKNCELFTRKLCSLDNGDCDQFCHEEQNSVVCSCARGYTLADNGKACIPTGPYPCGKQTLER
Coagulation factor X, sequence (P00742 235-488 limits assumed): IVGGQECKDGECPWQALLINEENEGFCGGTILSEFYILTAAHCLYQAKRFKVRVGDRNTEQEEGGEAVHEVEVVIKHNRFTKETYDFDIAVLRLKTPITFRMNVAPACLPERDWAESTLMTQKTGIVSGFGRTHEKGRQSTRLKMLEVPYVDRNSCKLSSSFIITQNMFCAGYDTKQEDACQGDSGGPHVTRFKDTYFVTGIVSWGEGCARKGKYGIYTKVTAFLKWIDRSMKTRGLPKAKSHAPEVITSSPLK
`C[C@@]1(CO)C[C@@H](O)C[C@@]2(C)[C@@H]3CC[C@](C)([C@@H](O)CO)C=C3CC[C@H]12` [KIRENOL] came in with an IC50 of 2.57 µM.
As for `CC(=O)OC[C@]1(C)C[C@@H](OC(C)=O)C[C@@]2(C)[C@@H]3CC[C@](C)([C@@H](O)CO)C=C3CC[C@H]12`, the IC50 stood at 5.62 µM.
To `CC(=O)O[C@@H]1CC[C@@]2(C)[C@@H]3CC[C@](C)(O)CC=C3CC[C@@H]2C1(C)C` belongs 5.73 µM; to `CC1(C)OCC([C@]2(C)C=C3CC[C@@H]4[C@](C)(CO)C[C@@H](O)C[C@@]4(C)[C@@H]3CC2)O1` (stereo not given in full), 7.16 µM; to `CC1(C)OCC([C@]2(C)C=C3CC[C@@H]4C(C)(C)[C@H](O)CC[C@@]4(C)[C@@H]3CC2)O1` (stereo not given in full), 1.02 µM.
To `CC(=O)O[C@@H]1CC[C@@]2(C)[C@@H]3CC[C@](C)([C@@H](O)CO)C=C3CC[C@@H]2C1(C)C` belongs 3.03 µM.
The figure for `CC1(C)[C@H](O)CC[C@@]2(C)[C@@H]3CC[C@](C)([C@@H](O)CO)C=C3CC[C@H]12` [DARUTIGENOL] is 11.4 µM; for `CC(=O)OC[C@]1(C)C[C@@H](OC(C)=O)C[C@@]2(C)[C@@H]3CC[C@](C)(O)CC=C3CC[C@H]12` it is 0.081 µM; for `CC(=O)O[C@@H]1CC[C@@]2(C)[C@@H]3CC[C@](C)(CO)C=C3CC[C@@H]2C1(C)C` it is 8.45 µM.
Take `CC(=O)OC[C@]1(C)C[C@@H](OC(C)=O)C[C@@]2(C)[C@@H]3CC[C@](C)(CO)C=C3CC[C@H]12`: the IC50 was found to be 1.07 µM. This IC50 lies about 7.9-fold lower than the previous one.
